How the values were obtained:
[1] = test system: Saccharomyces cerevisiae; test: DNA damaging activity against DNA […] Saccharomyces cerevisiae RS 188N (RAD+) mutant assessed as drug level required to produce 12 mm zone of inhibition after 48 hrs; format: functional
[2] = test system: Saccharomyces cerevisiae; test: DNA damaging activity against DNA repair-deficient Saccharomyces cerevisiae RS 322YK (rad 52Y) mutant assessed as drug level required to produce 12 mm zone of inhibition after 48 hrs; format: functional

## C=C[C@@]1(C)C[C@@H]2OC(=O)C3=C(CCCC3(C)C)[C@@]2(C)[C@H](C(=O)O)C1 [CANDIDALACTONE]
[1]
  Activity: >200 µg/mL
[2]
  Activity: 87 µg/mL

From ChEMBL document CHEMBL1146401, “A bioactive seco-rosane diterpenoid from Vellozia candida” (1997)
